Patent publication US20250228835A1, “PYRIDINYLOXYPYRIDINES AND RELATED COMPOUNDS AND THEIR USE IN TREATING MEDICAL CONDITIONS” (Rectify Pharmaceuticals, Inc., priority 2024, published 2025)

How the values were obtained:
Assay type in all cases: cell-based
ABCC6 WT = target: T1, ABCC6 WT (Homo sapiens, UniProt O95255); assay: ABCC6 WT assay: HiBit protein expression; conditions: HEK-293 cells transiently expressing HiBit-tagged ABCC6 WT; 24 h treatment; top concentration 20 μM; read-out: ABCC6 WT EC50, Emax
T1 construct: expressed in transfected cells; host or cells: HEK-293 (transient, Lipofectamine 2000)
Source text: To assess activity against ABCC6, compounds were screened in an assay measuring protein expression, using cells transfected with cDNA encoding HiBit-tagged ABCC6 wild-type.
Described here is an assay for measuring the expression of the wild type of human ABCC6 (henceforth referred to as ABCC6 WT) and the use of this assay to measure the efficacy of compounds to increase the expression of ABCC6 WT. The assay was designed to characterize the efficacy and potency of compounds to increase the expression of ABCC6 WT by calculating an Emax and EC50 value. HEK-293 cells transiently expressing ABCC6 WT (HEK-293/ACC6 WT) were used for this assay and were cultured at 37° C. (5% CO2, humidified) in Dulbecco's Modified Eagle Medium (DMEM, Gibco product #11965-092) supplemented with 10% fetal bovine serum. For the assay, HEK-293 cells were transfected with […]/10 cm plate of cDNA encoding HiBit-tagged ABCC6 wild-type using Lipofectamine 2000 (Thermo Fisher, product #11668019). Twenty-four hours after transfection, the HEK-293/ACC6 WT cells were seeded in white/opaque 384-well plates (PerkinElmer, cat. No. 6007688) at 10,000 cells/well in 20 μl growth medium and allowed to settle for 4 hours at 37° C. (5% CO2, humidified). Compound serial dilutions are prepared in growth medium as ten times (10×) the final concentration and using a dilution factor of 2. After the four-hour incubation period, 2.2 μL of the 10× dilutions are transferred to the assay plate.
Dose response curves include ten doses with the top final concentration at 20 μM in 0.15% DMSO. Liquid handling is performed with an Integra mini96-tip head (INTEGRA). After addition of compound treatment, cells are incubated for 24 hours at 37° C. (5% CO2, humidified). After the 24-hour treatment, plates are allowed to equilibrate for 15 minutes at room temperature. Using Integra mini-96, 20 μl of HiBit lytic assay reagent (Promega, product #N3040), which is prepared according to manufacturer's instructions, is added to each well. The plates are rotated at room temperature for 10 minutes and luminescent signal is acquired using an EnVision Multimode Plate Reader (PerkinElmer).
Results are presented below in Table 4 for ABCC6 WT.

ABCB4 WT = target: T2, ABCB4 WT (Homo sapiens, UniProt P21439); assay: ABCB4 WT assay: HiBit protein expression; conditions: HEK-293 cells stably expressing HiBit-tagged ABCB4 WT; 24 h treatment; top concentration 30 μM; read-out: ABCB4 WT EC50, Emax
T2 construct: expressed in transfected cells
Method in brief: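 HEK-293 cells stably expressing HiBit-tagged human ABCB4 WT, treated 24 h at 37 °C with 11-dose 3-fold dilutions, top final 30 μM in 0.3% DMSO. HiBit lytic reagent luminescence read after 1 h at 25 °C; Emax and EC50 derived.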

ABCA4 P1380L = target: T3, ABCA4 P1380L (Homo sapiens, UniProt P78363, P1380L); assay: A4 correction dose-response assay: ABCA4 P1380L HiBit protein expression; conditions: HEK-293 cells stably expressing HiBit-tagged ABCA4 P1380L; 24 h treatment; top concentration 30 μM; read-out: ABCA4 P1380L EC50, Emax
T3 construct: expressed in transfected cells
Experimental: Exemplary compounds were evaluated in an A4 correction dose-response assay.
To assess activity against ABCA4 P1380L, the compounds were screened in an assay measuring protein expression, using cells transfected with cDNA encoding HiBit-tagged ABCA4 P1380L. Here we describe an assay for measuring the expression of the P1380L variant of human ABCA4 (henceforth referred to as ABCA4 P1380L) and the use of this assay to measure the efficacy of compounds to increase the expression of ABCA4 P1380L. The assay was designed to characterize the efficacy and potency of compounds to increase the expression of ABCA4 P1380L by calculating an Emax and EC50 value. […] (5% CO2, humidified). […] After the four-hour incubation period, 60 nL of DMSO solutions are transferred to the assay plate.
Dose response curves include eleven doses with the top final concentration at 30 μM in 0.3% DMSO. Liquid handling is performed with ECHO 550 Acoustic Liquid Handler (Labcyte). After addition of compound treatment, cells are incubated for 24 hours at 37° C. (5% CO2, humidified). After the 24-hour treatment, plates are allowed to equilibrate to room temperature for 10 minutes. Using Dragonfly Automated Liquid Handler (TTP LabTech), 20 μl of HiBit lytic assay reagent (Promega, product #N3040), which is prepared according to manufacturer's instructions, is added to each well. The plates are rotated at room temperature for 2 minutes and incubated for 1 hour at 25° C. before luminescent signal is acquired using an EnVision Multimode Plate Reader (PerkinElmer).

T3 sequence (P78363 whole entry P1380L): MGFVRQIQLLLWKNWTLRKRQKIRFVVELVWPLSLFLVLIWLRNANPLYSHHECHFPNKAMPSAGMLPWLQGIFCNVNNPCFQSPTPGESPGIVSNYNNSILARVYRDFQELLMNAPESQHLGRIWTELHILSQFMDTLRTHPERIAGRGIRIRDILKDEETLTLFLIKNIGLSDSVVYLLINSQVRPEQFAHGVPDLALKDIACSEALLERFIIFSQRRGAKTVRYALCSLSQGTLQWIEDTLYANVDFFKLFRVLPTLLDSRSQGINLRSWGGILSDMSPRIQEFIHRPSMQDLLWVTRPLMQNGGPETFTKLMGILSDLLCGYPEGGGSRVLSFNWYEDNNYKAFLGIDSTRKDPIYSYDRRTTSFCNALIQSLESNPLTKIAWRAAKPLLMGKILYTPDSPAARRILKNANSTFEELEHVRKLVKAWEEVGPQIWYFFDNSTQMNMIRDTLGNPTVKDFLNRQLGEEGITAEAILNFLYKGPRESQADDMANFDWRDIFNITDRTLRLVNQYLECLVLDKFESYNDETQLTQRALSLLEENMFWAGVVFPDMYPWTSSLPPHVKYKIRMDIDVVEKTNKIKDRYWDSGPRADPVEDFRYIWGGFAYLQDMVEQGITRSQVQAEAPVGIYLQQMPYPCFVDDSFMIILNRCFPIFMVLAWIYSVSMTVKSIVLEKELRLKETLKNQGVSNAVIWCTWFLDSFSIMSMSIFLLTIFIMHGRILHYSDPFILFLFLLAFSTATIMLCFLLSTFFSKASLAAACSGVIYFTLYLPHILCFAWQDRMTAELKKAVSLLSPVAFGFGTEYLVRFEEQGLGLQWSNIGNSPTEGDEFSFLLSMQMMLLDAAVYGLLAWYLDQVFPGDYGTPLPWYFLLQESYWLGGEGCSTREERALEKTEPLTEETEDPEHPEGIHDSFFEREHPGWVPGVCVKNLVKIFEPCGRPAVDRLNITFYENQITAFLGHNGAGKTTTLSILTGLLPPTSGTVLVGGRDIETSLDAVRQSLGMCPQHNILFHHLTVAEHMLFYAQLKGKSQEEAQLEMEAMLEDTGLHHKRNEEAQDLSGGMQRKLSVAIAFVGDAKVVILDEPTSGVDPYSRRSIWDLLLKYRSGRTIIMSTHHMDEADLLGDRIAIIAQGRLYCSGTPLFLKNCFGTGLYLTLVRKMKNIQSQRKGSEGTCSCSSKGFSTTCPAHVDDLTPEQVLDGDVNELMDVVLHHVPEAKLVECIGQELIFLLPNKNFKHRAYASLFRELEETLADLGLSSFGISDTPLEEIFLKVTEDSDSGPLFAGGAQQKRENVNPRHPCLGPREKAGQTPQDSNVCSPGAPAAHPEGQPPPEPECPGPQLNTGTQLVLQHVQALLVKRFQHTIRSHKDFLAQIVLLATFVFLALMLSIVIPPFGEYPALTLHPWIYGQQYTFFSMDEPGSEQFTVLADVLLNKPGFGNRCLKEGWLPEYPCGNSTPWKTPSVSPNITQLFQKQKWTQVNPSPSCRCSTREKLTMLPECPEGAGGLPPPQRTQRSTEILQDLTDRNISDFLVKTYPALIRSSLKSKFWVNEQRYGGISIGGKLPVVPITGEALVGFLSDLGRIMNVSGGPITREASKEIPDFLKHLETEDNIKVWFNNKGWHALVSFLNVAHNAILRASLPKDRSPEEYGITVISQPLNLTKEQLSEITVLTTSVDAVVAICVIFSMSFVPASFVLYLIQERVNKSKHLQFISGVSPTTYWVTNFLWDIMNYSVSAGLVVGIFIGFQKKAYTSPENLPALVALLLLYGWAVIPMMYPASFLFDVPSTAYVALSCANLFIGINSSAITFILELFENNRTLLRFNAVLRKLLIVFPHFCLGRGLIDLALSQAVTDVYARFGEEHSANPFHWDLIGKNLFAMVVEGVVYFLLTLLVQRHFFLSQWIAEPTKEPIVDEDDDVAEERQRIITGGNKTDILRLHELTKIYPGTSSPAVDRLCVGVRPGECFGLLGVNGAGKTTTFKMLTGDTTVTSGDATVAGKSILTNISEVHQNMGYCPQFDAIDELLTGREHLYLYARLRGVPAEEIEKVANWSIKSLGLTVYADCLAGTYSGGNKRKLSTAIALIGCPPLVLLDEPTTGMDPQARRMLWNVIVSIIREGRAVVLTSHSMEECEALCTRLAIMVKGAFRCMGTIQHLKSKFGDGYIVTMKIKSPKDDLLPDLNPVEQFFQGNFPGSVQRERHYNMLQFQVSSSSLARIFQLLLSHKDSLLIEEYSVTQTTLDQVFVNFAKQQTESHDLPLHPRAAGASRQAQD
T2 sequence (P21439 whole entry): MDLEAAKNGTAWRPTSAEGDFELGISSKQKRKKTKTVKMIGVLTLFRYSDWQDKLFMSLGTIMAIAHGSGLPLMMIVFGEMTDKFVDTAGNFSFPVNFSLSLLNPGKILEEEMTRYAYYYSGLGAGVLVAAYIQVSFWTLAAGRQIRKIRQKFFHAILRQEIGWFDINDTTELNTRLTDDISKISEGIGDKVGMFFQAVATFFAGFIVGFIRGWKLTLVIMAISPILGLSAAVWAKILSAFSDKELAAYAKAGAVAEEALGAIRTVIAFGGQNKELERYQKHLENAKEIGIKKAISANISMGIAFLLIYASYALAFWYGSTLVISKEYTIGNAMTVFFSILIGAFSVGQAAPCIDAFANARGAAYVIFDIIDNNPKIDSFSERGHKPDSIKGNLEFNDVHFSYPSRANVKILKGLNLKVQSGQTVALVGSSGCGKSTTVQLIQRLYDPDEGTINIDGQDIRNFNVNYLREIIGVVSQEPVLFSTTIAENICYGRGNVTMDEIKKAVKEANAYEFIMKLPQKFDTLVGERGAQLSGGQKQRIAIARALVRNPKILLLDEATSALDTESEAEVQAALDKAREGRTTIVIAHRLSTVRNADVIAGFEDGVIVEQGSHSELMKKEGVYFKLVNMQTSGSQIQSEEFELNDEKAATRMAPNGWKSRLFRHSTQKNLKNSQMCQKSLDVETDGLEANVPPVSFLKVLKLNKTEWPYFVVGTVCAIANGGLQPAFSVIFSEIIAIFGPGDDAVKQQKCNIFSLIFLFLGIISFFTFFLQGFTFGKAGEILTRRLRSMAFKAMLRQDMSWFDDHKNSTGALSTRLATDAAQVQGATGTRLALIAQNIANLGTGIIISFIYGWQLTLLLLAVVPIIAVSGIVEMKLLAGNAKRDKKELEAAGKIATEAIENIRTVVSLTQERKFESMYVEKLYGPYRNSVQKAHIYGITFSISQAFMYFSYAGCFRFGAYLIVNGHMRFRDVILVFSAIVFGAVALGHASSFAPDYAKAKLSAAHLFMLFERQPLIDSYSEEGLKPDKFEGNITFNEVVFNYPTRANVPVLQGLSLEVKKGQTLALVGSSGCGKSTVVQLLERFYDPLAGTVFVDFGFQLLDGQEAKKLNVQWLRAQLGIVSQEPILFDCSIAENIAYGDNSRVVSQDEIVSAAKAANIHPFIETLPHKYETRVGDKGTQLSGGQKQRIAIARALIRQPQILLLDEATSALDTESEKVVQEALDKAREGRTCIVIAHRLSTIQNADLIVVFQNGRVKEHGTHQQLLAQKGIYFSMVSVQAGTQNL
T1 sequence (O95255 whole entry): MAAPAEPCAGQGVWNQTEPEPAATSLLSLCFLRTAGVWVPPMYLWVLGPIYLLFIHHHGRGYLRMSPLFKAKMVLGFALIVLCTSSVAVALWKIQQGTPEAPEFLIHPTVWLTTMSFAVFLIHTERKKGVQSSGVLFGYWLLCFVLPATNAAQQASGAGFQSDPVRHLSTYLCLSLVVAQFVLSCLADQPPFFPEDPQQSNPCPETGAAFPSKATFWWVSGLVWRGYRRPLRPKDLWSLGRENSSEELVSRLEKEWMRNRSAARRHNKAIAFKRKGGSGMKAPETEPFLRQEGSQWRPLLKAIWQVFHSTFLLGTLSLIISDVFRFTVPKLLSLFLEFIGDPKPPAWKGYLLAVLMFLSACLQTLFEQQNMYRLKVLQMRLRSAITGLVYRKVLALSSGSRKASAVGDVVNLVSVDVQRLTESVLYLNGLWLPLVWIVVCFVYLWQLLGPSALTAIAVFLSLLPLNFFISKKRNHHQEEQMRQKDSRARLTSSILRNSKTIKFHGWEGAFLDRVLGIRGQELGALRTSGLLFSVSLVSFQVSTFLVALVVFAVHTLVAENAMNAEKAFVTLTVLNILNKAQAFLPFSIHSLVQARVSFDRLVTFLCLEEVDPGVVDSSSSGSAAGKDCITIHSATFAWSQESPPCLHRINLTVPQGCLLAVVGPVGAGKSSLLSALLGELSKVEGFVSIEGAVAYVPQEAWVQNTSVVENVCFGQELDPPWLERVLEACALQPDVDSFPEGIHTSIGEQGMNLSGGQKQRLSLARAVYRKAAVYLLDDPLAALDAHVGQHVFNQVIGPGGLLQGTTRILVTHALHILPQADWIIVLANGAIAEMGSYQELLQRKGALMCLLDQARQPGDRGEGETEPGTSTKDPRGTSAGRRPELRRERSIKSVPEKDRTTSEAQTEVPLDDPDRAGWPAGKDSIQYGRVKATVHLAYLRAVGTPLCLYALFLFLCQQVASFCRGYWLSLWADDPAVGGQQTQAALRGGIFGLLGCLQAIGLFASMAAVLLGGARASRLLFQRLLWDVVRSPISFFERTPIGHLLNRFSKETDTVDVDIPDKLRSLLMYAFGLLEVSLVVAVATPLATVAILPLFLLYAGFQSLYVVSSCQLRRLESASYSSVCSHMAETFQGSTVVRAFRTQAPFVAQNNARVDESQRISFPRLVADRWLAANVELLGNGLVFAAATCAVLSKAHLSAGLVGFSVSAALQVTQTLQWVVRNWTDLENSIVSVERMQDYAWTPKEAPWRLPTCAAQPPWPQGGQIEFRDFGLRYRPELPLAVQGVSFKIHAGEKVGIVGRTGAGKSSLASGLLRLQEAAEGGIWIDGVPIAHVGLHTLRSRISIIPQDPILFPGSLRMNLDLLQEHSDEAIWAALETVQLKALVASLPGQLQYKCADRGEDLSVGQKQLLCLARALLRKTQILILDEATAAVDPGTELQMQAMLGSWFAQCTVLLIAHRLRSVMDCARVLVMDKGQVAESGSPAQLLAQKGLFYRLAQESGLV

SMILES	EC50 (ABCC6 WT)	EC50 (ABCB4 WT)	EC50 (ABCA4 P1380L)
COC1CN(c2cncc(-c3ccc(NS(C)(=O)=O)c(Oc4c(C)cc(C)nc4C)n3)c2)C1 [Compound I-196]	< 1 µM	≥ 25 µM	> 25 µM
COc1cc(-c2ccc(NS(C)(=O)=O)c(Oc3c(C)cc(C)nc3C)n2)ccn1 [Compound I-188]	< 1 µM	≥ 25 µM	1 to 10 µM
Cc1cc(C)c(Oc2nc(-c3cncc(N4CC(F)C4)c3)ccc2NS(C)(=O)=O)c(C)n1 [Compound I-185]	< 1 µM	< 1 µM	< 1 µM
Cc1cc(C)c(Oc2nc(-c3cncc(C#N)c3)ccc2NS(C)(=O)=O)c(OC2CC2)n1 [Compound I-176]	< 1 µM	< 1 µM	< 1 µM
COC(=O)N1CCN(c2ccc(NS(C)(=O)=O)c(Oc3c(C)cc(C)cc3C)n2)CC1 [Compound I-16]	1 to 10 µM	≥ 25 µM	> 25 µM
CNS(=O)(=O)c1ccc(-c2cncc(C#N)c2)nc1Oc1c(C)cc(C(F)(F)F)nc1C [Compound I-168]	1 to 10 µM	1 to 10 µM	1 to 10 µM
Cc1cc(C)c(Oc2nc(-c3cncc(N4CCC4)c3)ccc2NS(C)(=O)=O)c(C)n1 [Compound I-190]	< 1 µM	< 1 µM	< 1 µM
Cc1nc(N2CC(F)(F)C2)nc(C)c1Oc1nc(-c2cncc(C#N)c2)ccc1NS(C)(=O)=O [Compound I-170]	< 1 µM	< 1 µM	< 1 µM
Cc1nc(C(F)F)nc(C)c1Oc1nc(-c2cncc(C#N)c2)ccc1NS(C)(=O)=O [Compound I-173]	< 1 µM	< 1 µM	< 1 µM
Cc1cc(C)c(Oc2nc(-c3cnn(C)c3C)ccc2NS(C)(=O)=O)c(C)c1 [Compound I-13]	< 1 µM	1 to 10 µM	1 to 10 µM
Cc1cc(Oc2nc(-c3cncc(C#N)c3)ccc2NS(C)(=O)=O)c(C)nc1C1CC1 [Compound I-127]	< 1 µM	< 1 µM	1 to 10 µM
CNS(=O)(=O)c1ccc(-c2cncc(C#N)c2)nc1Oc1c(C)nc(C(F)(F)F)nc1C [Compound I-167]	1 to 10 µM	1 to 10 µM	1 to 10 µM
Cc1nc(C)c(Oc2nc(-c3cncc(C(F)(F)F)c3)ccc2NS(C)(=O)=O)c(C)n1 [Compound I-192]	< 1 µM	< 25 µM	1 to 10 µM
Cc1cc(C)c(Oc2nc(-c3cncc(C#N)c3)ccc2NS(=O)(=O)C2(C)CC2)c(C)n1 [Compound I-172]	1 to 10 µM	< 1 µM	< 1 µM
Cc1cc(C)c(Oc2nc(-c3cncc(C#N)c3)ccc2N(C)S(C)(=O)=O)c(C)n1 [Compound I-166]	1 to 10 µM	1 to 10 µM	1 to 10 µM
Cc1cc(N2CCC2)nc(C)c1Oc1nc(-c2cncc(C#N)c2)ccc1NS(C)(=O)=O [Compound I-177]	< 1 µM	< 1 µM	< 1 µM
Cc1cc(Oc2nc(-c3cncc(C#N)c3)ccc2NS(C)(=O)=O)c(C)nc1C(F)(F)F [Compound I-182]	< 1 µM	< 1 µM	< 1 µM
Cc1cc(OC2CC2)nc(C)c1Oc1nc(-c2cncc(C#N)c2)ccc1NS(C)(=O)=O [Compound I-132]	< 1 µM	< 1 µM	< 1 µM
Cc1nc(C2CC2)c(C(F)(F)F)cc1Oc1nc(-c2cncc(C#N)c2)ccc1NS(C)(=O)=O [Compound I-184]	< 1 µM	< 1 µM	< 1 µM
COC(=O)c1cncc(-c2ccc(NS(C)(=O)=O)c(Oc3cc(C)n(C)n3)n2)c1 [Compound I-206]	1 to 10 µM	< 25 µM	< 25 µM
Cc1nc(C(F)(F)F)nc(C)c1Oc1nc(-c2cncc(C#N)c2)ccc1NS(C)(=O)=O [Compound I-200]	< 1 µM	< 1 µM	< 1 µM
Cc1cc(C(F)F)nc(C)c1Oc1nc(-c2cncc(C#N)c2)ccc1NS(=O)(=O)C1CC1 [Compound I-199]	1 to 10 µM	< 1 µM	< 1 µM
Cc1cc(C)c(Oc2nc(-c3cncc(C4CN(C)C4)c3)ccc2NS(C)(=O)=O)c(C)n1 [Compound I-194]	≥ 25 µM	≥ 25 µM	10 to 25 µM
Cc1cc(C)c(Oc2nc(-c3cncc(N4CCOCC4)c3)ccc2NS(C)(=O)=O)c(C)n1 [Compound I-201]	1 to 10 µM	≥ 25 µM	1 to 10 µM
Cc1cc(C)c(Oc2nc(-c3cncc(S(C)(=N)=O)c3)ccc2NS(C)(=O)=O)c(C)n1 (stereo not drawn) [Compound I-116]	≥ 25 µM	≥ 25 µM	> 25 µM
Cc1cc(C2CCC2)nc(C)c1Oc1nc(-c2cncc(C#N)c2)ccc1NS(C)(=O)=O [Compound I-208]	< 1 µM	< 1 µM	< 1 µM

The remaining lines, values ahead:

EC50 (ABCC6 WT)	EC50 (ABCB4 WT)	EC50 (ABCA4 P1380L)	SMILES
< 1 µM	< 1 µM	< 1 µM	Cc1cc(C(F)F)nc(C)c1Oc1nc(-c2cncc(C#N)c2)ccc1NS(C)(=O)=O [Compound I-230]
< 1 µM	< 25 µM	> 25 µM	Cc1nc(C)c(C(F)(F)F)cc1Oc1nc(-c2cncc(C#N)c2)ccc1NS(C)(=O)=O [Compound I-225]
< 1 µM	< 1 µM	< 1 µM	C#Cc1cncc(-c2ccc(NS(C)(=O)=O)c(Oc3c(C)cc(C)nc3C)n2)c1 [Compound I-212]
< 1 µM	< 1 µM	< 1 µM	Cc1cc(C(F)(F)F)nc(C)c1Oc1nc(-c2ccnc(C#N)c2)ccc1NS(C)(=O)=O [Compound I-219]
< 1 µM	< 1 µM	10 to 25 µM	Cc1cc(C)c(Oc2nc(-c3ccnc(C#N)c3)ccc2NS(=O)(=O)C2CC2)c(C)n1 [Compound I-211]
1 to 10 µM	≥ 25 µM	1 to 10 µM	Cc1cc(C)c(Oc2nc(-c3cncc(C#N)c3)ccc2N2CCCS2(=O)=O)c(C)n1 [Compound I-221]
< 1 µM	< 1 µM	> 25 µM	Cc1cc(Oc2nc(-c3cncc(C#N)c3)ccc2NS(C)(=O)=O)c(C)nc1C [Compound I-226]
< 1 µM	< 25 µM	< 1 µM	Cc1cc(C)c(Oc2nc(-c3cncc(Cl)c3)ccc2NS(=O)(=O)C2COC2)c(C)n1 [Compound I-237]
< 1 µM	< 1 µM	< 1 µM	Cc1cc(C2CC2)nc(C)c1Oc1nc(-c2ccnc(C#N)c2)ccc1NS(C)(=O)=O [Compound I-213]
< 1 µM	1 to 10 µM	< 1 µM	Cc1nc(C)c(Oc2nc(-c3cncc(C#N)c3)ccc2NS(C)(=O)=O)c(C)n1 [Compound I-234]
< 1 µM	1 to 10 µM	1 to 10 µM	COCc1cncc(-c2ccc(NS(C)(=O)=O)c(Oc3c(C)cc(C)nc3C)n2)c1 [Compound I-231]
